{
  "source": "patent US8093274B2",
  "about": "“Inhibitors of protein prenyltransferases” (The Regents of the University of California, priority 2006, dated 2012)",
  "key": {"[1]": {"molecular_target": "GGTase I (substrate RhoA) (Homo sapiens, UniProt P49354+P53609)", "test": "GGTase I filter-binding assay with RhoA as substrate", "format": "biochemical", "settings": "for specificity of GGTase I inhibition: compared with FTase and GGTase-II, varying concentrations, FIGS. 20A-20C", "method": "(§1) The pilot library was screened for inhibitors of protein geranylgeranyltransferase type I. Protein prenyltransferase assays were carried out by using filter binding. Two different substrates, RhoA and K-Ras4B, were used for the assay. RhoA ends with the CaaL motif and is an exclusive substrate for GGTase I, while K-Ras4B ends with the CaaX motif and is modified by both GGTase I and FTase.\n(§2) The % activity of GGTase I was determined as follows: a working solution that contained each compound in DMSO at the concentration of 1 mM was prepared. The working solution was added to GGTase I reaction mixture so that the final concentration of the compound is 50 μM. GGTase I activity was assayed by incubating [^3H]GGPP with K-Ras4B or RhoA protein in the presence of GGTase I and examining radioactivity incorporated into the substrate protein by spotting onto a filter paper. After washing with TCA, ethanol and acetone, the radioactivity retained on the filter was determined by the use of a scintillation counter. GGTase I activity in the presence of DMSO was taken as a 100% value and the activity in the presence of the compound was shown as percent activity compared with the 100% value. […] For 6-aryl-4-mercapto-N-sulfonyl-piperidine-3-carboxylic acid 11 the 4-mercapto substituent appeared critical to endowing GGTase inhibitory activity. […] 4-Chlorobenzylthio substituent was the next best; 12 compounds out of 21 containing the 4-chlorobenzylthio moiety were active. 4-Benzylthio substituent was also good; 7 piperidines out of 21 bearing 4-benzylthio group were active. […] 19 imines (C15>C12=C41>C40>C01=C11>C05=C10=C30=C35=C37=C38>C02, C03, C04, C06, C39=C43) out of 21 appeared in the GGTIs. […] This corresponds to 47 6-aryl-4-mercapto-N-sulfonyl-piperidine-3-carboxylic acids out of 357 compounds.\n(§3) A collection of 138 heterocycles was screened for their ability to inhibit the activity of human GGTase-I to geranylgeranylate K-Ras4B or RhoA. Purified GGTase-1 was incubated with its substrate protein K-Ras4B or RhoA, [^3H]GGPP, and the 138 compounds. After 30 min, the degree of incorporation of tritiated geranylgeranyl groups was measured using a scintillation counter.\n(§4) The GGTase-I assay was carried out using RhoA as a substrate protein, GGTase-I (JENA Bioscience) and [3H]geranylgeranyl pyrophosphate. Incubation was for 30 min at 37 C. GGTase-H (or RabGGTase) assay was carried out using YPT1 as a substrate protein, GGTase-H (Calbiochem, San Diego, Calif.) plus REP1 (Calbiochem) and [3H]geranylgeranyl pyrophosphate. Incubation was for 30 min at 37 C. FIGS. 20D-20F show the three dimensional structure of GGTase I (D), FTsse (E) and GGTase II (F) which can be obtained from X-ray diffraction studies of protein crystals."}, "[2]": {"molecular_target": "T1, protein farnesyltransferase (FTase) (Rattus norvegicus, UniProt Q02293+Q04631)", "T1 construct": "purchased JENA Bioscience", "test": "Protein farnesyltransferase assay with K-Ras4B and [3H]FPP", "format": "biochemical", "settings": "for inhibition of FTase: at concentrations at which they inhibited GGTase-I by more than 90%", "description": "To further characterize the pilot library, inhibitors of protein farnesyltransferase were identified. This was accomplished by using K-Ras4B as a substrate protein, tritiated farnesylpyrophosphate ([^3H]FPP) and protein farnesyltransferase. See Finegold, A. A., Johnson, D. I., Farnsworth, C. C., Gelb, M. H., Judd, S. R., Glomset, J. A. and Tamanoi, F. (1991) Protein geranylgeranyltransferase of Saccharomyces cerevisiae is specific for Cys-Xaa-Xaa-Leu motif and requires the CDC43 gene product but not the DPRI gene product. Proc. Natl. Acad. Sci. USA 88, 4448-4452. […] On the other hand, the structure of the compounds P1-F11, P2-B7 and P2-E9 resemble those of GGTIs. The FTI P1-F11 resembles the GGTI P1-F10, while the FTI P2-B7 resembles the GGTI P2-C10. The FTI P2-E9 is similar to the GGTI P2-G3. Similarity of some GGTI and FTI compounds may point to common structural features between the two closely related enzymes. As described before, FTase and GGTase I have similar three-dimensional structures and a shared alpha subunit. On the other hand, FTase specific inhibitors may recognize a region(s) that is different between the two enzymes.\nVarying concentrations of the two compounds were added to each enzyme reaction. The FTase (protein farnesyltransferase) assay was carried out using K-Ras4B as a substrate protein, FTase (JENA Bioscience, San Diego, Calif.) and […] pyrophosphate. Incubation was for 30 min at 37 C."}, "GGTase-I": {"system": "GGTase-I", "test": "GGTase-I inhibition kinetics, double reciprocal plots", "format": "biochemical", "settings": "varying GGPP with fixed RhoA", "method": "as §4\nThe graphs in FIG. 21 show double reciprocal plots obtained from substrate velocity curves for the inhibition of GGTase-I by P3-E5 (left) and P5-H6 (right). The upper figures show varying GGPP concentrations with a fixed RhoA protein concentration were used. The lower figures show varying RhoA protein concentrations with a fixed GGPP concentration was used. The following scale was used to prepare the graphs: Y-axis: 1/v, fmol/min. X-axis: 1/s, mM."}, "[3]": {"system": "geranylgeranylated Rheb (Rheb-CSVL) in HEK 293 cells", "test": "Geranylgeranylation of Rheb-CVSL in HEK 293 cells, mobility shift on Western blot", "format": "cell-based, human", "settings": "for inhibition of geranylgeranylation of Myc-HA tagged-Rheb-CVSL in cells: HEK 293 cells treated for 48 hours; for inhibition of geranylgeranylation of Rheb-CSVL within the cell: HEK 293 cells, FIG. 33", "description": "Finally, we investigated in vivo effects of compounds 22 (also known as UC-22) and 23 (also known as UC-23). Human embryonic kidney (HEK) 293 cells were transfected with the Rheb-CSVL construct that expresses the geranylgeranylated form of the Rheb protein. Inhibition of the geranylgeranylation of this protein can be detected from a shift in its mobility on SDS polyacrylamide gel; the unprocessed form appears as a slowly migrating band.\nHuman embryonic kidney (HEK) 293 cells expressing Myc-HA tagged-Rheb-CVSL (upper) or Myc-HA tagged-Rheb-WT (lower) were treated with P3-E5 for 48 hours and then lysed. The cell lysates were run on a SDS polyacrylamide gel and immunoblotted using anti-Myc or anti-Actin antibody. The descriptors P and U indicate processed and unprocessed Rheb, respectively.\nHuman embryonic kidney (HEK) 293 cells expressing Myc-HA tagged-Rheb-CVSL (upper) or Myc-HA tagged-Rheb-WT (lower) were treated with mP5-H6a (also referred to as mP5-H6), or GGTI-298 for 48 hours and then lysed. Lysates were run on a SDS polyacrylamide gel and immunoblotted with anti-Myc or anti-Actin antibody."}, "K562 cells [4]": {"system": "K562 cells", "test": "Proliferation of K562 cells, cell counting kit-8", "format": "cell-based, human", "settings": "72 hours; relative to DMSO control", "method": "(§5) K562 cells are a cell line of human erythroleukemia cells. The K562 cells were treated with P3-E5, P5-H6 or GGTI-298 (a known GGTI compound illustrated in FIG. 27) for 72 hours and then cell number was counted using cell counting kit-8 (Dojindo, Gaithersburg, Md.). Cell viability relative to the DMSO control and the known GGTI compound is plotted in FIG. 23."}, "K562 cells [5]": {"system": "K562 cells", "test": "Cell cycle profile of K562 cells by flow cytometry", "format": "cell-based, human", "settings": "48 hours; 0 to 10 mM", "method": "K562 cells were treated with indicated concentrations (mM) of P3-E5 (ranging from […]) or GGTI-298 (ranging from […]) for 48 hours. Cell cycle profiles were monitored by flow cytometry. Percentages of cells in each phase of the cell cycle are indicated by different colors. Red: G0/G1 phase. Black: S phase. Gray: G2/M phase."}, "[6]": {"molecular_target": "GGTase I (substrate K-Ras4B) (Homo sapiens, UniProt P49354+P53609)", "test": "GGTase I filter-binding assay with K-Ras4B as substrate", "format": "biochemical", "settings": "50 μM compound; DMSO = 100%; smaller numbers indicate better inhibition; first number of pair; read-out: % activity of GGTase I for protein K-Ras4B in the presence of the compound", "method": "as §1, §2, §3"}, "Panc-1 cells": {"system": "Panc-1 cells", "test": "Proliferation of Panc-1 cells", "format": "cell-based, human", "method": "as §5\n(§6) Panc-1 cells (Pancreatic cancer cell line) and Jurkat cells (T-cell leukemia) were treated with 12.5 μM of P5-H6 or 12.5 μM of mP5-H6a for 72 hours. The cell number was counted as described in Example 5."}, "Jurkat cells": {"system": "Jurkat cells", "test": "Proliferation of Jurkat cells", "format": "cell-based, human", "method": "as §5, §6"}, "BT474": {"system": "BT474", "test": "Proliferation of BT474 cells", "format": "cell-based, human"}, "MDA-MB231": {"system": "MDA-MB231", "test": "Proliferation of MDA-MB231 cells", "format": "cell-based, human"}, "MiaPaCa2": {"system": "MiaPaCa2", "test": "Proliferation of MiaPaCa2 cells", "format": "cell-based, human"}},
  "data": [
    {"smiles": "Cc1ccccc1S(=O)(=O)N1[C@@H](c2cccc(Cl)c2)C(C(=O)O)=CC[C@H]1c1ccc(Cl)cc1", "note": "(relative stereo) [P3-E5]", "values": [
      {"measurement": "IC50", "setting": "[1]; FIG. 15, read-out: IC50 for the inhibition of GGTase I using RhoA as a substrate", "value": 7, "unit": "µM"},
      {"measurement": "specificity of GGTase I inhibition", "setting": "[1]", "value": "specifically inhibit GGTase I"},
      {"measurement": "inhibition of FTase activity", "setting": "[2]; FIG. 16, concentration increased to 100 μM", "value": "no inhibition of FTase activity was observed"},
      {"measurement": "inhibition of FTase", "setting": "[2]", "value": "did not inhibit FTase"},
      {"measurement": "mode of inhibition of GGTase-I", "setting": "GGTase-I", "value": "compete with a substrate protein but do not compete with GGPP"},
      {"measurement": "inhibition of geranylgeranylation of Myc-HA tagged-Rheb-CVSL in cells", "setting": "[3]", "value": "inhibits geranylgeranylation in cells"},
      {"measurement": "inhibition of geranylgeranylation of Rheb-CSVL within the cell", "setting": "[3]", "value": "inhibit geranylgeranylation within the cell"},
      {"measurement": "inhibition of proliferation of K562 cells", "setting": "K562 cells [4]", "value": "inhibit proliferation of K562 cells"},
      {"measurement": "cell cycle effect in K562 cells", "setting": "K562 cells [5]", "value": "induces G1 arrest in K562 cells"}
    ]},
    {"smiles": "Cc1ccccc1S(=O)(=O)N1[C@@H](c2ccc(Cl)cc2)C(C(=O)O)=C[C@H]1C(C)(C)C", "note": "(relative stereo) [P5-H6]", "values": [
      {"measurement": "activity at 50 µM", "setting": "[6]", "value": 13.3, "unit": "%"},
      {"measurement": "activity at 50 µM", "setting": "[1]; 50 μM compound, DMSO = 100%, smaller numbers indicate better inhibition, second number of pair, read-out: % activity of GGTase I for protein RhoA in the presence of the compound", "value": 5.3, "unit": "%"},
      {"measurement": "specificity of GGTase I inhibition", "setting": "[1]", "value": "specifically inhibit GGTase I"},
      {"measurement": "inhibition of FTase", "setting": "[2]", "value": "did not inhibit FTase"},
      {"measurement": "mode of inhibition of GGTase-I", "setting": "GGTase-I", "value": "compete with a substrate protein but do not compete with GGPP"},
      {"measurement": "inhibition of geranylgeranylation of Rheb-CSVL within the cell", "setting": "[3]", "value": "inhibit geranylgeranylation within the cell"},
      {"measurement": "inhibition of proliferation of K562 cells", "setting": "K562 cells [4]", "value": "inhibit proliferation of K562 cells"}
    ]},
    {"smiles": "COC(=O)[C@H](Cc1ccccc1)NCC(=O)OCC1=C[C@@H](C(C)(C)C)N(S(=O)(=O)c2ccccc2C)C1c1ccc(Cl)cc1", "note": "(stereo partly drawn) [mP5-H6]", "values": [
      {"measurement": "inhibition of geranylgeranylation of Myc-HA tagged-Rheb-CVSL in cells", "setting": "[3]", "value": "inhibits geranylgeranylation in vivo"},
      {"measurement": "inhibition of proliferation of pancreatic cancer cell line Panc-I", "setting": "Panc-1 cells", "value": "inhibits proliferation"},
      {"measurement": "inhibition of growth of Panc-1 cells relative to P5-H6", "setting": "Panc-1 cells; 12.5 μM, 72 hours", "value": "inhibits the growth of Panc-1 cells and Jurkat cells better than P5-H6"},
      {"measurement": "inhibition of proliferation of leukemic cell line Jurkat", "setting": "Jurkat cells", "value": "inhibits proliferation"},
      {"measurement": "inhibition of growth of Jurkat cells relative to P5-H6", "setting": "Jurkat cells; 12.5 μM, 72 hours", "value": "inhibits the growth of Panc-1 cells and Jurkat cells better than P5-H6"},
      {"measurement": "inhibition of proliferation of breast cancer cell line BT474", "setting": "BT474", "value": "inhibits proliferation"},
      {"measurement": "inhibition of proliferation of breast cancer cell line MDA-MB231", "setting": "MDA-MB231", "value": "inhibits proliferation"},
      {"measurement": "inhibition of proliferation of pancreatic cancer cell line MiaPaCa2", "setting": "MiaPaCa2", "value": "inhibits proliferation"}
    ]}
  ]
}
